# Assay results reported in PubChem BioAssay (NCI).
#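 Interpolation was linear, between the two tested concentrations surrounding the appropriate level; five concentrations were tested over 48 hours in 96-well plates. GI50 is the concentration that inhibits growth by half. At the TGI there is no net growth.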
# Assays:
# Test in all cases: DTP human tumour cell line panel, 48 h
# [1] = test system: 786-0 renal
# [2] = test system: A498 renal
# [3] = test system: A549 NSCLC
# [4] = test system: ACHN renal
# [5] = test system: CAKI-1 renal
# [6] = test system: CCRF-CEM leukemia
# [7] = test system: COLO 205 colon
# [8] = test system: DU-145 prostate
# [9] = test system: EKVX NSCLC
# [10] = test system: HCC-2998 colon
# [11] = test system: HCT-116 colon
# [12] = test system: HCT-15 colon
# [13] = test system: HL-60(TB) leukemia
# [14] = test system: HOP-62 NSCLC
# [15] = test system: HOP-92 NSCLC
# [16] = test system: HS 578T breast
# [17] = test system: IGROV1 ovarian
# [18] = test system: K-562 leukemia
# [19] = test system: KM12 colon
# [20] = test system: LOX IMVI melanoma
# [21] = test system: M14 melanoma
# [22] = test system: MALME-3M melanoma
# [23] = test system: MCF7 breast
# [24] = test system: MDA-MB-231 breast
# [25] = test system: MDA-MB-435
# [26] = test system: MOLT-4 leukemia
# [27] = test system: NCI-H226 lung
# [28] = test system: NCI-H23 lung
# [29] = test system: NCI-H460 lung
# [30] = test system: NCI/ADR-RES ovarian
# [31] = test system: OVCAR-3 ovarian
# [32] = test system: OVCAR-4 ovarian
# [33] = test system: OVCAR-5 ovarian
# [34] = test system: OVCAR-8 ovarian
# [35] = test system: PC-3 prostate
# [36] = test system: RPMI-8226 leukemia
# [37] = test system: RXF 393 renal
# [38] = test system: SF-268 CNS
# [39] = test system: SF-295 CNS
# [40] = test system: SF-539 CNS
# [41] = test system: SK-MEL-28 melanoma
# [42] = test system: SK-MEL-5 melanoma
# [43] = test system: SK-OV-3 ovarian
# [44] = test system: SNB-19 CNS
# [45] = test system: SNB-75 CNS
# [46] = test system: SR leukemia
# [47] = test system: SW-620 colon
# [48] = test system: U251 CNS
# [49] = test system: UACC-257 melanoma
# [50] = test system: UACC-62 melanoma
# [51] = test system: UO-31 renal
# [52] = test system: BT-549 breast
# [53] = test system: HT29 colon
# [54] = test system: NCI-H522 lung
# [55] = test system: SK-MEL-2 melanoma
# [56] = test system: SN12C renal
# [57] = test system: T-47D breast
# [58] = test system: TK-10 renal
smiles,measurement,setting,value
COc1cc(/C=C/[N+](=O)[O-])c([N+](=O)[O-])cc1OC,GI50,[1],1.61 µM
same,TGI,[1],2.95 µM
same,GI50,[2],3.03 µM
same,TGI,[2],11.9 µM
same,GI50,[3],3.38 µM
same,TGI,[3],10.3 µM
same,GI50,[4],1.56 µM
same,TGI,[4],2.9 µM
same,GI50,[5],1.7 µM
same,TGI,[5],7.17 µM
same,GI50,[6],2.13 µM
same,TGI,[6],6.07 µM
same,GI50,[7],1.16 µM
same,TGI,[7],2.43 µM
same,GI50,[8],1.58 µM
same,TGI,[8],2.93 µM
same,GI50,[9],8.98 µM
same,TGI,[9],22.6 µM
same,GI50,[10],1.73 µM
same,TGI,[10],3.22 µM
same,GI50,[11],0.977 µM
same,TGI,[11],2.14 µM
same,GI50,[12],1.33 µM
same,TGI,[12],4.49 µM
same,GI50,[13],1.32 µM
same,TGI,[13],5.71 µM
same,GI50,[14],2.91 µM
same,TGI,[14],8.74 µM
same,GI50,[15],2.05 µM
same,TGI,[15],4.27 µM
same,GI50,[16],1.88 µM
same,TGI,[16],7.45 µM
same,GI50,[17],2.55 µM
same,TGI,[17],11.9 µM
same,GI50,[18],1.64 µM
same,TGI,[18],> 100 µM
same,GI50,[19],1.93 µM
same,TGI,[19],3.92 µM
same,GI50,[20],1.68 µM
same,TGI,[20],3.05 µM
same,GI50,[21],1.6 µM
same,TGI,[21],2.98 µM
same,GI50,[22],1.71 µM
same,TGI,[22],3.38 µM
same,GI50,[23],1.12 µM
same,TGI,[23],2.73 µM
same,GI50,[24],1.7 µM
same,TGI,[24],3.46 µM
same,GI50,[25],2.17 µM
same,TGI,[25],7.51 µM
same,GI50,[26],2.21 µM
same,TGI,[26],9.11 µM
same,GI50,[27],2.63 µM
same,TGI,[27],7.68 µM
same,GI50,[28],2.12 µM
same,TGI,[28],4.94 µM
same,GI50,[29],2.33 µM
same,TGI,[29],5.67 µM
same,GI50,[30],2.85 µM
same,TGI,[30],10.1 µM
same,GI50,[31],1.3 µM
same,TGI,[31],2.57 µM
same,GI50,[32],1.57 µM
same,TGI,[32],2.93 µM
same,GI50,[33],1.98 µM
same,TGI,[33],3.98 µM
same,GI50,[34],2.5 µM
same,TGI,[34],9.46 µM
same,GI50,[35],2.3 µM
same,TGI,[35],5.7 µM
same,GI50,[36],2.53 µM
same,TGI,[36],5.74 µM
same,GI50,[37],1.38 µM
same,TGI,[37],2.67 µM
same,GI50,[38],2.71 µM
same,TGI,[38],11.3 µM
same,GI50,[39],6.72 µM
same,TGI,[39],22.1 µM
same,GI50,[40],3.27 µM
same,TGI,[40],84.7 µM
same,GI50,[41],2.06 µM
same,TGI,[41],4.72 µM
same,GI50,[42],3.39 µM
same,TGI,[42],12.3 µM
same,GI50,[43],12.8 µM
same,TGI,[43],25.4 µM
same,GI50,[44],6 µM
same,TGI,[44],19.8 µM
same,GI50,[45],2.25 µM
same,TGI,[45],7.56 µM
same,GI50,[46],1.6 µM
same,TGI,[46],8.24 µM
same,GI50,[47],0.785 µM
same,TGI,[47],2.26 µM
same,GI50,[48],1.92 µM
same,TGI,[48],5.35 µM
same,GI50,[49],2.91 µM
same,TGI,[49],11.9 µM
same,GI50,[50],2.34 µM
same,TGI,[50],7.14 µM
same,GI50,[51],1.36 µM
same,TGI,[51],2.81 µM
CN(C)CCNc1c2c(c(NCCN(C)C)c3c(CN(C)C)c[nH]c13)C(=O)c1ccccc1C2=O,GI50,[1],0.356 µM
same,TGI,[1],8.91 µM
same,GI50,[2],18.7 µM
same,TGI,[2],33.6 µM
same,GI50,[3],2.88 µM
same,TGI,[3],9.98 µM
same,GI50,[4],1.15 µM
same,TGI,[4],5.88 µM
same,GI50,[52],18.2 µM
same,TGI,[52],36.9 µM
same,GI50,[5],4.73 µM
same,TGI,[5],11.5 µM
same,GI50,[6],0.639 µM
same,TGI,[6],2.58 µM
same,GI50,[7],13.6 µM
same,TGI,[7],> 53.8 µM
same,GI50,[8],4.2 µM
same,TGI,[8],15.1 µM
same,GI50,[9],4.31 µM
same,TGI,[9],17.3 µM
same,GI50,[10],2.14 µM
same,TGI,[10],8.61 µM
same,GI50,[11],0.676 µM
same,TGI,[11],> 100 µM
same,GI50,[12],1.35 µM
same,TGI,[12],6.98 µM
same,GI50,[13],3.02 µM
same,TGI,[13],7.48 µM
same,GI50,[14],0.946 µM
same,TGI,[14],11.9 µM
same,GI50,[15],2.91 µM
same,TGI,[15],15.8 µM
same,GI50,[16],7.49 µM
same,TGI,[16],19 µM
same,GI50,[53],2.56 µM
same,TGI,[53],27.4 µM
same,GI50,[17],2.22 µM
same,TGI,[17],11.7 µM
same,GI50,[18],2.59 µM
same,TGI,[18],14.6 µM
same,GI50,[19],1.6 µM
same,TGI,[19],7.3 µM
same,GI50,[20],1.05 µM
same,TGI,[20],2.73 µM
same,GI50,[21],2.48 µM
same,TGI,[21],7.57 µM
same,GI50,[22],6.5 µM
same,TGI,[22],15.7 µM
same,GI50,[23],1.81 µM
same,TGI,[23],10 µM
same,GI50,[24],1.61 µM
same,TGI,[24],9.39 µM
same,GI50,[25],2.75 µM
same,TGI,[25],8.04 µM
same,GI50,[26],0.582 µM
same,TGI,[26],> 38.1 µM
same,GI50,[27],15 µM
same,TGI,[27],35.5 µM
same,GI50,[28],3.91 µM
same,TGI,[28],14.6 µM
same,GI50,[29],2.2 µM
same,TGI,[29],9.49 µM
same,GI50,[54],3.39 µM
same,TGI,[54],18.7 µM
same,GI50,[30],4.53 µM
same,TGI,[30],20.5 µM
same,GI50,[31],4.29 µM
same,TGI,[31],23.9 µM
same,GI50,[32],8.23 µM
same,TGI,[32],34.1 µM
same,GI50,[33],16 µM
same,TGI,[33],34.6 µM
same,GI50,[34],2.16 µM
same,TGI,[34],14.2 µM
same,GI50,[35],0.612 µM
same,TGI,[35],3.2 µM
same,GI50,[36],0.545 µM
same,TGI,[36],2.26 µM
same,GI50,[37],3.71 µM
same,TGI,[37],19.5 µM
same,GI50,[38],5.39 µM
same,TGI,[38],22.1 µM
same,GI50,[39],3.14 µM
same,TGI,[39],9.83 µM
same,GI50,[40],3.85 µM
same,TGI,[40],10.2 µM
same,GI50,[55],18.3 µM
same,TGI,[55],42.9 µM
same,GI50,[41],16.7 µM
same,TGI,[41],38.2 µM
same,GI50,[42],5.65 µM
same,TGI,[42],10.6 µM
same,GI50,[43],17.4 µM
same,TGI,[43],40.2 µM
same,GI50,[56],1.18 µM
same,TGI,[56],7.32 µM
same,GI50,[44],16.1 µM
same,TGI,[44],40 µM
same,GI50,[45],19.2 µM
same,TGI,[45],40.9 µM
same,GI50,[47],2.7 µM
same,TGI,[47],9.72 µM
same,GI50,[57],22.3 µM
same,TGI,[57],46.8 µM
same,GI50,[58],2.08 µM
same,TGI,[58],7.06 µM
same,GI50,[48],2.57 µM
same,TGI,[48],10.4 µM
same,GI50,[49],9.15 µM
same,TGI,[49],> 27.4 µM
same,GI50,[50],14.7 µM
same,TGI,[50],29.9 µM
same,GI50,[51],3.76 µM
same,TGI,[51],16.8 µM
